Our source for the IC50 values is PubChem BioAssay AID1117319 (Southern Research Institute, 2015).

Structures are written as SMILES. Inconclusive results are not listed. A value given as a limit tells only on which side of the number the result lay.

The test addresses Virion infectivity factor (Human immunodeficiency virus type 1 group M subtype B (isolate BH10)) + Virion infectivity factor (Human immunodeficiency virus type 1 group M subtype B (isolate BRU/LAI)) + Virion infectivity factor (Human immunodeficiency virus type 1 group M subtype B (isolate PCV12)) + Virion infectivity factor (Human immunodeficiency virus type 1 group M subtype B (isolate HXB2)) + DNA dC->dU-editing enzyme APOBEC-3G (Homo sapiens) (UniProt P69720+P69721+P69722+P69723+Q9HC16). In words: HIV-1 Vif–A3G interaction blockers – biochemical, TR-FRET, GST-Vif 1-94, biotin-A3G peptide, dose response retest, primary screen (AID 1117319).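 Note: Vif residues 1-94 fused to GST binding biotinylated APOBEC3G peptide 110-148.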 Conditions: TR-FRET GST-Vif / biotin-A3G peptide binding. In general terms: TR-FRET usually uses a lanthanide donor and a delayed reading to cut background.
`O=C(c1cc(COc2cccc3cccnc23)on1)N1CCC[C@H]1CO`: the IC50 is 88.7 µM.
Then `O=C1/C(=C\c2ccco2)SC(=S)N1c1ccccc1`, with 2.58 µM; and `CCn1c(SCC(=O)OC)nc2sc3c(c2c1=O)CCC3`, with 12.7 µM; and `Cc1c(Cl)cccc1NS(=O)(=O)c1ccc2c(c1)C1C=CCC1C(c1ccc(C(=O)O)cc1)N2` (stereo not given), with 2.54 µM.
Then `Cc1cc2c(c(=O)o1)C(c1ccc([N+](=O)[O-])o1)C(C#N)=C(N)O2` (stereo not given), with 2.53 µM; and `O=c1ccc2c(-c3ccccc3S(=O)(=O)O)c3ccc(O)c(O)c3oc-2c1O`, with 0.34 µM; and `COc1cc(NC(=O)c2cc3nc(C)cc(C)n3n2)c(OC)cc1Cl`, with 92.1 µM.
Then `CC(C)(Oc1ccc(Cl)cc1)C(=O)NCc1ccco1`, with 43.1 µM; and `O=C(O)C(Cc1ccccc1)N1C(=O)/C(=C/C=C/c2ccco2)SC1=S` (stereo not given), with 2.11 µM; and `O=C1NC(=O)N(c2cccc(Cl)c2)C(=O)/C1=C\c1ccc(Sc2nc3ccccc3[nH]2)o1`, with 10.1 µM.
As for `O=C1C(Cl)=C(N2CCCCC2)C(=O)C(Cl)=C1c1cnc(N2CCCCC2)s1`, the IC50 is 4.21 µM.
Regarding `CCCCN1C2CCCC1CC(NC(=O)c1ccc(OC)c(OC)c1)C2` (stereo not given), the IC50 is 19.1 µM.
The figure for `COC1=CC(=O)C(C2CC(=O)c3c(O)cc(O)cc3O2)=CC1=O` (stereo not given) is 15 µM; for `COc1ccc(/C=N\NC(=O)c2cc(O)c(O)c(O)c2)cc1CN1CCN(c2ccc(F)cc2)CC1` it is below 2.47 µM; for `CCc1ccc(S(=O)(=O)/N=C2\C=CC(=O)c3ccccc32)cc1` it is 8.1 µM.
For the compound `CC(=O)Nc1ccc(S(=O)(=O)Nc2nc3ccccc3nc2Nc2ccc(C(=O)O)c(O)c2)cc1`, the 50% inhibitory concentration (IC50) is 17.4 µM.
The figure for `COc1ccc(N=C2NC(=O)/C(=C\C=C\c3ccco3)S2)cc1` is 2.2 µM; for `O=C1CCCC(O)=C1N=Nc1ccc(C(=O)O)cc1` it is 2.72 µM; for `CN(C1=C(NC(=O)c2ccc(Cl)cc2)C(=O)c2ccccc2C1=O)c1ccccc1` it is 52.4 µM.
The figure for `CN(C)c1ccc(N=C/C=C2/N(C)c3ccccc3C2(C)C)cc1` is 2.19 µM; for `O=C(COc1ccc(S(=O)(=O)N2CCCC2)cc1)NCCC1=CCCCC1` it is 75.1 µM; for `Cc1cc(C)n(CC(=O)NNC(=O)c2ccc(NC(=O)CC#N)cc2)n1` it is 91.3 µM.
The figure for `Cc1ccccc1NC(=O)CSc1nnc(-c2ccco2)c(-c2ccco2)n1` is 1.17 µM; for `COC(=O)C1=C(O)/C(=C\c2ccc(CNC(=O)C(=O)Nc3ccc(C)c(C)c3)o2)N=C1C` it is 34.1 µM.
With `Cn1cccc1/C=C1/C(=O)NC(=S)N(Cc2ccc(F)cc2)C1=O`, the IC50 was 1.24 µM.
`COc1cccc(-c2nn3c(-c4ccccn4)nnc3s2)c1`: the IC50 was 81.3 µM.
Then `CCC(=O)NC1=C(Cl)C(=O)C(NC(=O)CC)=C(Cl)C1=O`, with 22.9 µM; and `CN1CCc2cccc3c2[C@@H]1Cc1ccc(O)c(O)c1-3`, with 1.66 µM.
The figure for `O=C(c1cc(-c2ccco2)on1)N1CCN(c2ccccc2)CC1` is 31.2 µM.
Then `COc1cc2c(cc1OC)C(=O)C(Br)CC2` (stereo not given), with 1.48 µM.
For the compound `O=C(O)c1c2c(nc3ccc(Cl)cc13)CCC2`, the IC50 is 23.4 µM.
Then `CCOC(=O)N1CCN(C(=O)c2ccc3c(SCC(=O)O)c4c(nc3c2)CCC4)CC1`, with 1.9 µM.
The figure for `CC1(CCl)N([O-])C2=C(CCCC2)[N+]1=O` (stereo not given) is 8.49 µM; for `O=C(Nc1nc(-c2ccco2)c(-c2ccco2)s1)c1ccco1` it is 32.2 µM; for `Fc1ccccc1/C=C1\CCCC2=C1Nc1ncnn1C2c1ccccc1F` (stereo not given) it is 38.3 µM.
Then `CN=c1scc(C)n1/N=C/c1ccc(O)c(O)c1O`, with below 1.84 µM; and `COc1ccc(-n2c(C)cc(C(=O)CSc3nn4c(=O)c(C(C)(C)C)nnc4s3)c2C)cc1`, with 10.3 µM.
As to `CN(C)c1ccc(N/C=C/C(=O)c2ccco2)cc1`, the IC50 is 30.8 µM.
The figure for `CCOc1ccccc1NC(=O)CCS(=O)(=O)c1ccc(Br)cc1` is 7.52 µM; for `Cc1cc(C(=O)CSc2nnc(-c3ccco3)o2)c(C)n1Cc1ccco1` it is 1.97 µM.
As to `NC(=O)/C(=C/c1ccco1)C(N)=S`, the IC50 was 9.35 µM.
The figure for `O=C(COC(=O)c1cc(-c2ccco2)nc2ccccc12)NCc1ccc2c(c1)OCO2` is 12.5 µM.
Turning to `CC1=CC(=Nc2c(C)n(C)n(-c3ccccc3)c2=O)C=CC1=O`, the IC50 was 5.02 µM.
For the compound `CCOC(=O)Cn1nnnc1C(C(C)C)N(Cc1cc2c(C)cc(C)cc2[nH]c1=O)C1CCCC1` (stereo not given), the half-maximal inhibitory concentration (IC50) was 46 µM.
For `O=C1Cc2cccc(=O)c(O)c2C(=O)O1`, the concentration for half-maximal inhibition (IC50) was 14 µM.
As for `C=CCN=c1scc(-c2ccco2)n1/N=C/c1ccc(O)c(O)c1O`, the IC50 is 1.38 µM.
The figure for `Cc1ccc(N2CCN(c3ccc(C)cc3)C2c2ccccn2)cc1` is 75.8 µM.
Then `Oc1ccc(/C=N/N=C/c2ccc(O)c(O)c2)cc1O`, with 4.82 µM.
The figure for `N#CC1=C(Nc2ccccc2)SC=C(c2ccc(Br)cc2)N=C1N1CCOCC1` is 97.1 µM; for `COc1ccc(C2CC(=O)Nc3cc(C)c(C)cc32)c(OC)c1OC` (stereo not given) it is 63.5 µM.
Consider `O=C1C(=Cc2ccco2)CCCC1=Cc1ccco1`, for which the IC50 was 12.1 µM.
Then `O=C1[C@@H]2C(Cc3ccc(O)cc3)NC3(C(=O)Nc4ccc(F)cc43)[C@@H]2C(=O)N1c1ccc(F)cc1` (stereo not given in full), with 64.5 µM; and `CC(=O)OC1COC(n2ccc3ccccc32)C(OC(C)=O)C1OC(C)=O` (stereo not given), with 22.6 µM; and `Cn1c2ccccc2c2ccc3c(c21)C(=O)C=CC3=O`, with 23.8 µM.
Then `CCOC(=O)c1c(C)oc2c1c(C=NCc1ccccn1)c(O)c1ccccc12`, with 1.86 µM.
On to `O=C1/C(=C\c2ccco2)SC(=S)N1Cc1ccccc1`, for which the half-inhibitory concentration (IC50) is 3.56 µM.
The figure for `C=CC1=C(C(=O)O)N2C(=O)C(NC(=O)Cc3ccccc3)C2SC1` (stereo not given) is 11.5 µM; for `CC1=C(C#N)C(=O)N(C2CCS(=O)(=O)C2)C(=O)/C1=C\c1ccc(C)o1` (stereo not given) it is 1.42 µM.
For the compound `CCCCn1cnc2cc(NCc3ccncc3)ccc21`, the IC50 was 35.3 µM.
Consider `C=CCn1c(C)cc(-c2csc(N)n2)c1C`, for which the 50% inhibitory concentration (IC50) is 1.23 µM.
Then `CC1=C(C(=O)Nc2ccccc2F)C(c2ccsc2)C2=C(CC(c3ccccc3)CC2=O)N1` (stereo not given), with 1.02 µM; and `CC(C)c1ccc(/C=C/C(=O)N2CCc3ccccc3C2)cc1`, with 17.9 µM; and `NC(=O)c1ccc(N2CCN(c3ccc(O)cc3)CC2)c([N+](=O)[O-])c1`, with 7.08 µM.
In the case of `COc1ccc(N2C3=C(CC4=C2CCCC4=O)C(=O)CCC3)cc1`, the IC50 is 26.3 µM.
The figure for `COC(=O)C(C)Sc1nnc(Cc2cc(=O)[nH]c(=O)[nH]2)n1-c1cc(C)ccc1C` (stereo not given) is 95.6 µM.
The figure for `S=c1[nH]nc(-c2cccnc2)n1/N=C/C=C/c1ccco1` is 3.97 µM.
`CO[C@H]1C=CO[C@@]2(C)Oc3c(C)c(O)c4c(O)c(c(C=NN5CCN(C)CC5)c(O)c4c3C2=O)NC(=O)C(C)=CC=C[C@H](C)[C@H](O)[C@@H](C)[C@@H](O)[C@@H](C)[C@H](OC(C)=O)[C@@H]1C`: the IC50 was 7.75 µM.
As to `N#C/C(C(N)=O)=c1/ccc2c(c1)N1C3=C(CCCC3)CC3CCCCC31N=2` (stereo not given), the IC50 was 28.2 µM.
Then `CCCn1nc(C(=O)Nc2cc(C(=O)OC)ccc2C)c2ccccc2c1=O`, with 86.5 µM; and `COc1cc(NCCCNC(C)C)c2nccc(C)c2c1`, with 52.8 µM.

One may read the IC50 as the concentration that gives 50% inhibition.
